Test results reported in patent US20080317836A1, “Topical compositions for anti-aging skin treatment” (DISCOVERY PARTNERS LLC, priority 2007, published 2008).

Assay: Stability to intense pulsed light (IPL) flashes, monitored by absorbance spectrum
Format: physicochemical
Conditions: ten pulses at maximum fluence of the flash lamp, visible spectral range
Method: A small study, on one subject, was conducted to see whether encapsulation of the sodium-copper-chlorophyllin within the liposome enhanced skin tanning, i.e., increased penetration and bioavailability of copper to the melanin-producing enzyme, […]. […] Three areas on the back received 1.0 MED simulated solar radiation: one area had received no treatment, one area had been pre-treated with the gel without liposome and the third area was treated with the liposome gel. An expert blinded grader scored the resulting skin tanning at 10 days after irradiation, using the Degree of Tanning scale 0 to 10 (darkest). […] Controlled dissociation of the sodium-copper-chlorophyllin complex is possible, in part because of the high stability of this complex. Normally, inorganic and organic copper salts, including copper-peptides, are not very stable with regard to binding copper. The inherent stability and lack of reactivity of sodium-copper-chlorophyllin is essential for this process to work successfully. […] Stability was monitored by measurement of the dye's full absorbance spectrum, since degradation of the dye would be detectable as changes in the absorbance spectrum.

sodium-copper-chlorophyllin [sodium-copper-chlorphyllin]
absorbance spectrum after IPL flashes: remained unchanged
